Data published in US10207011B2, “Methods, systems, and devices for an invertebrate model of traumatic brain injury” (WISCONSIN ALUMNI RESEARCH FOUNDATION, priority 2013, dated 2019).

System: w^1118 flies
Test: Mortality after standard TBI protocol in aspirin-fed flies
Assay type: in vivo, Drosophila
Details: 0-3-day old w^1118 flies cultured four days on food with 0.4 ml aspirin (200 mg/ml in DMSO) before standard TBI protocol; FIG. 5
Text: Based on the data described in Example 2, we designed a standard TBI protocol for administering controlled impacts to generate primary injuries. The standard TBI protocol consisted of four impacts with five min recovery intervals between impacts. Reproducibility and rapidity were the driving forces behind the choice of protocol parameters. […] As a proof of concept for identifying an agent that could reduce the severity of an impact-associated phenotype, e.g., lethality, we tested whether, the non-steroidal anti-inflammatory drug, aspirin, affects TBI outcomes. Flies were treated with aspirin by feeding and then subjected to the standard TBI protocol. 0.4 ml of aspirin (200 mg/ml in DMSO) or DMSO only was added to vials with food and allowed to absorb into the food for two hours. 0-3-day old w^1118 flies, with an approximately equal number of male and female flies, were cultured on the food for four days. Flies were then left untreated or subjected to the standard TBI protocol. […] Thus, aspirin pre-treatment raises the primary injury threshold.

CC(=O)Oc1ccccc1C(=O)O [aspirin]
mortality 24 hours after a controlled impact, relative to DMSO-treated flies: lower mortality than the DMSO-treated flies
